Reference: ChEMBL document CHEMBL1151370, “Marine animal biosynthetic constituents for cancer chemotherapy” (1981)

Tested on: P388
Assay: Antineoplastic activity against mouse P388 cells
Assay type: functional

`CC(C)C[C@@H]1NC(=O)[C@@H]2CCCN2C(=O)[C@H](C(C)C)NC(=O)c2csc(n2)CNC(=O)c2csc(n2)[C@H](CCC(N)=O)NC1=O` [DOLASTATIN 3] was tested. Which ED50 did it give?
Its ED50 is 2.7 ×10⁻⁷ ug/ml.
